For four compounds, MIC results are on record in patent US10227331B2 (priority 2015, dated 2019).

Common to all, as to type: cell-based, Pseudomonas aeruginosa
The test system of assay [1] is MB 5919 Trans pFIp-Vim2 plasd (efflux+).
For assay [2], the system named is MB 5890 Trans pFIp-Vim2 plasd (efflux-).
Assay [3] concerns MB 9862 (MB 5890 Trans pFIp-Vim1, efflux-).
Assay [4] relates to MB 9861 (MB 5919 Trans pFIp-Vim1 plasmid, efflux+).
The test system of another assay is MB 5890 (OprD+, efflux-).
A further assay has as its system MB 5919 (OprD+, efflux+).
Assay [5] deals with MB 9799 (MB 5890 Trans IMP1 plasmid, efflux-). The note with it: CL 5673 (IMP-1) plasmid.

Values after ≈ are worked out from the molar mass of the structure shown. Bounds are passed on as bounds.

As for `CC(C)(O/N=C(\C(=O)N[C@@H]1C(=O)N2C(C(=O)[O-])=C(C[n+]3ccccc3)CS[C@H]12)c1csc(N)n1)C(=O)O` [CAZ, ceftazidime], the MIC was 128 µg/mL (≈ 234 µM) in assay [1]; 64 µg/mL (≈ 117 µM) in assay [2]; more than 256 µg/mL in assay [3]; more than 256 µg/mL in assay [4]; 0.5 µg/mL (≈ 0.915 µM) in the assay with MB 5890 (OprD+, efflux-); 1 µg/mL (≈ 1.83 µM) against MB 5919 (OprD+, efflux+). The MIC in assay [5] is 256 µg/mL (≈ 468 µM).

Take `C[C@@H](O)[C@H]1C(=O)N2C(C(=O)O)=C(SCCN=CN)C[C@H]12` [Imipenem, imipenem]: the MIC in assay [1] is more than 64 µg/mL; in assay [2] it was 32 µg/mL (≈ 107 µM); in assay [3] it was 64 µg/mL (≈ 214 µM); in assay [4] it was more than 64 µg/mL; in the assay on MB 5890 (OprD+, efflux-), 2 µg/mL (≈ 6.68 µM); in the assay with MB 5919 (OprD+, efflux+), 4 µg/mL (≈ 13.4 µM). Moreover, in assay [5], the MIC worked out at 32 µg/mL (≈ 107 µM).

For `C[C@@H](O)[C@H]1C(=O)N2C(C(=O)O)=C(S[C@@H]3CN[C@H](C(=O)N(C)C)C3)[C@H](C)[C@H]12` [Meropenem, meropenem], the MIC in assay [1] is more than 64 µg/mL; in assay [2], 32 µg/mL (≈ 83.4 µM); in assay [3] it was 64 µg/mL (≈ 167 µM); in assay [4] it was more than 64 µg/mL; in the assay on MB 5890 (OprD+, efflux-), 0.5 µg/mL (≈ 1.3 µM); with MB 5919 (OprD+, efflux+) it was 2 µg/mL (≈ 5.22 µM). The MIC in assay [5] is 64 µg/mL (≈ 167 µM).

Regarding `CCN1CCN(C(=O)N[C@@H](C(=O)N[C@@H]2C(=O)N3[C@@H]2SC(C)(C)[C@@H]3C(=O)O)c2ccccc2)C(=O)C1=O` [Pipercillin, piperacillin], the MIC in assay [1] was more than 256 µg/mL; in assay [2] it was 128 µg/mL (≈ 247 µM); in assay [3] it was 128 µg/mL (≈ 247 µM); in assay [4] it was more than 256 µg/mL; against MB 5890 (OprD+, efflux-), 1 µg/mL (≈ 1.93 µM); in the assay with MB 5919 (OprD+, efflux+), 2 µg/mL (≈ 3.86 µM). This compound also registered an MIC in assay [5] of 4 µg/mL (≈ 7.73 µM).
